Measurements as given in ChEMBL document CHEMBL1151757, “Synthesis, radiosynthesis, and biological evaluation of fluorine-18-labeled 2beta-carbo(fluoroalkoxy)-3beta-(3'-((Z)-2-haloethenyl)phenyl)nortropanes: candidate radioligands for in vivo imaging of the serotonin transporter with positron emission tomography” (J Med Chem, 2008).

Test system: not listed separately
Test: Ratio of drug uptake in pons to cerebellum in anesthetized cynomolgus monkey after 35 mins postinjection
Type: ADME, organism-based, Macaca fascicularis
Settings: in vivo

SMILES	Ratio
O=C(OCC[18F])C1C2CCC(CC1c1cccc(/C=C\Br)c1)N2 (centres undefined)	1.1

Test system: not listed separately
Test: Ratio of drug uptake in pons to cerebellum in anesthetized cynomolgus monkey after 125 mins postinjection
Type: ADME, organism-based, Macaca fascicularis
Settings: in vivo

SMILES	Ratio
O=C(OCC[18F])C1C2CCC(CC1c1cccc(/C=C\Br)c1)N2 (centres undefined)	1.6

Test system: not listed separately
Test: Ratio of drug uptake in medulla to cerebellum in anesthetized cynomolgus monkey after 85 mins postinjection
Type: ADME, organism-based, Macaca fascicularis
Settings: in vivo

SMILES	Ratio
O=C(OCC[18F])C1C2CCC(CC1c1cccc(/C=C\Br)c1)N2 (centres undefined)	1.5

Test system: not listed separately
Test: Drug uptake in anesthetized cynomolgus monkey brain occipital lobe after 1.5 mins postinjection
Type: ADME, organism-based, Macaca fascicularis
Settings: in vivo, 0.025 h

SMILES	Drug uptake
O=C(OCC[18F])C1C2CCC(CC1c1cccc(/C=C\Br)c1)N2 (centres undefined)	0.06

Test system: not listed separately
Test: Drug uptake in anesthetized cynomolgus monkey brain occipital lobe after 55 mins postinjection
Type: ADME, organism-based, Macaca fascicularis
Settings: in vivo

SMILES	Drug uptake
O=C(OCC[18F])C1C2CCC(CC1c1cccc(/C=C\Br)c1)N2 (centres undefined)	3.49

Test system: not listed separately
Test: Drug uptake in anesthetized cynomolgus monkey brain occipital lobe after 85 mins postinjection
Type: ADME, organism-based, Macaca fascicularis
Settings: in vivo

SMILES	Drug uptake
O=C(OCC[18F])C1C2CCC(CC1c1cccc(/C=C\Br)c1)N2 (centres undefined)	3.31

Test system: not listed separately
Test: Drug uptake in anesthetized cynomolgus monkey brain occipital lobe after 95 mins postinjection
Type: ADME, organism-based, Macaca fascicularis
Settings: in vivo

SMILES	Drug uptake
O=C(OCC[18F])C1C2CCC(CC1c1cccc(/C=C\Br)c1)N2 (centres undefined)	3.16

Test system: not listed separately
Test: Drug uptake in anesthetized cynomolgus monkey brain occipital lobe after 105 mins postinjection
Type: ADME, organism-based, Macaca fascicularis
Settings: in vivo, 1.75 h

SMILES	Drug uptake
O=C(OCC[18F])C1C2CCC(CC1c1cccc(/C=C\Br)c1)N2 (centres undefined)	3.15

Test system: not listed separately
Test: Drug uptake in anesthetized cynomolgus monkey brain occipital lobe after 215 mins postinjection
Type: ADME, organism-based, Macaca fascicularis
Settings: in vivo

SMILES	Drug uptake
O=C(OCC[18F])C1C2CCC(CC1c1cccc(/C=C\Br)c1)N2 (centres undefined)	2.01

Test system: not listed separately
Test: Drug uptake in anesthetized cynomolgus monkey brain frontal lobe after 0.5 mins postinjection
Type: ADME, organism-based, Macaca fascicularis
Settings: in vivo

SMILES	Drug uptake
O=C(OCC[18F])C1C2CCC(CC1c1cccc(/C=C\Br)c1)N2 (centres undefined)	0

Test system: not listed separately
Test: Drug uptake in anesthetized cynomolgus monkey brain frontal lobe after 2.5 mins postinjection
Type: ADME, organism-based, Macaca fascicularis
Settings: in vivo

SMILES	Drug uptake
O=C(OCC[18F])C1C2CCC(CC1c1cccc(/C=C\Br)c1)N2 (centres undefined)	0.22

Test system: not listed separately
Test: Drug uptake in anesthetized cynomolgus monkey brain frontal lobe after 3.5 mins postinjection
Type: ADME, organism-based, Macaca fascicularis
Settings: in vivo

SMILES	Drug uptake
O=C(OCC[18F])C1C2CCC(CC1c1cccc(/C=C\Br)c1)N2 (centres undefined)	0.62

Test system: not listed separately
Test: Drug uptake in anesthetized cynomolgus monkey brain frontal lobe after 15.5 mins postinjection
Type: ADME, organism-based, Macaca fascicularis
Settings: in vivo

SMILES	Drug uptake
O=C(OCC[18F])C1C2CCC(CC1c1cccc(/C=C\Br)c1)N2 (centres undefined)	2.38

Test system: not listed separately
Test: Drug uptake in anesthetized cynomolgus monkey brain frontal lobe after 35 mins postinjection
Type: ADME, organism-based, Macaca fascicularis
Settings: in vivo

SMILES	Drug uptake
O=C(OCC[18F])C1C2CCC(CC1c1cccc(/C=C\Br)c1)N2 (centres undefined)	2.78

Test system: not listed separately
Test: Drug uptake in anesthetized cynomolgus monkey brain frontal lobe after 45 mins postinjection
Type: ADME, organism-based, Macaca fascicularis
Settings: in vivo, 0.75 h

SMILES	Drug uptake
O=C(OCC[18F])C1C2CCC(CC1c1cccc(/C=C\Br)c1)N2 (centres undefined)	2.85

Test system: not listed separately
Test: Drug uptake in anesthetized cynomolgus monkey brain frontal lobe after 75 mins postinjection
Type: ADME, organism-based, Macaca fascicularis
Settings: in vivo, 1.25 h

SMILES	Drug uptake
O=C(OCC[18F])C1C2CCC(CC1c1cccc(/C=C\Br)c1)N2 (centres undefined)	2.86

Test system: not listed separately
Test: Drug uptake in anesthetized cynomolgus monkey brain frontal lobe after 115 mins postinjection
Type: ADME, organism-based, Macaca fascicularis
Settings: in vivo

SMILES	Drug uptake
O=C(OCC[18F])C1C2CCC(CC1c1cccc(/C=C\Br)c1)N2 (centres undefined)	2.69

Test system: not listed separately
Test: Drug uptake in anesthetized cynomolgus monkey brain frontal lobe after 155 mins postinjection
Type: ADME, organism-based, Macaca fascicularis
Settings: in vivo

SMILES	Drug uptake
O=C(OCC[18F])C1C2CCC(CC1c1cccc(/C=C\Br)c1)N2 (centres undefined)	2.46

Test system: not listed separately
Test: Ratio of drug uptake in midbrain to cerebellum in anesthetized cynomolgus monkey after 235 mins postinjection
Type: ADME, organism-based, Macaca fascicularis
Settings: in vivo

SMILES	Ratio
O=C(OCC[18F])C1C2CCC(CC1c1cccc(/C=C\Br)c1)N2 (centres undefined)	2.3

Test system: not listed separately
Test: Ratio of drug uptake in pons to cerebellum in anesthetized cynomolgus monkey after 0.5 mins postinjection
Type: ADME, organism-based, Macaca fascicularis
Settings: in vivo

SMILES	Ratio
O=C(OCC[18F])C1C2CCC(CC1c1cccc(/C=C\Br)c1)N2 (centres undefined)	3.8

Test system: Putamen
Test: Drug uptake in anesthetized cynomolgus monkey brain putamen after 215 mins postinjection
Type: ADME, organism-based, Macaca fascicularis
Settings: in vivo

SMILES	Drug uptake
O=C(OCC[18F])C1C2CCC(CC1c1cccc(/C=C\Br)c1)N2 (centres undefined)	3.24

Test system: not listed separately
Test: Ratio of drug uptake in occipital lobe to cerebellum in anesthetized cynomolgus monkey after 235 mins postinjection
Type: ADME, organism-based, Macaca fascicularis
Settings: in vivo

SMILES	Ratio
O=C(OCC[18F])C1C2CCC(CC1c1cccc(/C=C\Br)c1)N2 (centres undefined)	1.2

Test system: Midbrain
Test: Drug uptake in anesthetized cynomolgus monkey brain midbrain after 145 mins postinjection
Type: ADME, organism-based, Macaca fascicularis
Settings: in vivo

SMILES	Drug uptake
O=C(OCC[18F])C1C2CCC(CC1c1cccc(/C=C\Br)c1)N2 (centres undefined)	4.65

Test system: Midbrain
Test: Drug uptake in anesthetized cynomolgus monkey brain midbrain after 175 mins postinjection
Type: ADME, organism-based, Macaca fascicularis
Settings: in vivo

SMILES	Drug uptake
O=C(OCC[18F])C1C2CCC(CC1c1cccc(/C=C\Br)c1)N2 (centres undefined)	4.13

Test system: Pons
Test: Drug uptake in anesthetized cynomolgus monkey brain pons after 2.5 mins postinjection
Type: ADME, organism-based, Macaca fascicularis
Settings: in vivo

SMILES	Drug uptake
O=C(OCC[18F])C1C2CCC(CC1c1cccc(/C=C\Br)c1)N2 (centres undefined)	0.42

Test system: Pons
Test: Drug uptake in anesthetized cynomolgus monkey brain pons after 22.5 mins postinjection
Type: ADME, organism-based, Macaca fascicularis
Settings: in vivo, 0.375 h

SMILES	Drug uptake
O=C(OCC[18F])C1C2CCC(CC1c1cccc(/C=C\Br)c1)N2 (centres undefined)	3.81

Test system: Pons
Test: Drug uptake in anesthetized cynomolgus monkey brain pons after 35 mins postinjection
Type: ADME, organism-based, Macaca fascicularis
Settings: in vivo

SMILES	Drug uptake
O=C(OCC[18F])C1C2CCC(CC1c1cccc(/C=C\Br)c1)N2 (centres undefined)	4.22

Test system: Pons
Test: Drug uptake in anesthetized cynomolgus monkey brain pons after 55 mins postinjection
Type: ADME, organism-based, Macaca fascicularis
Settings: in vivo

SMILES	Drug uptake
O=C(OCC[18F])C1C2CCC(CC1c1cccc(/C=C\Br)c1)N2 (centres undefined)	4.36

Test system: Pons
Test: Drug uptake in anesthetized cynomolgus monkey brain pons after 205 mins postinjection
Type: ADME, organism-based, Macaca fascicularis
Settings: in vivo

SMILES	Drug uptake
O=C(OCC[18F])C1C2CCC(CC1c1cccc(/C=C\Br)c1)N2 (centres undefined)	3.51

Test system: not listed separately
Test: Drug uptake in anesthetized cynomolgus monkey brain occipital lobe after 205 mins postinjection
Type: ADME, organism-based, Macaca fascicularis
Settings: in vivo

SMILES	Drug uptake
O=C(OCC[18F])C1C2CCC(CC1c1cccc(/C=C\Br)c1)N2 (centres undefined)	2.28

Test system: not listed separately
Test: Ratio of drug uptake in caudate to cerebellum in anesthetized cynomolgus monkey after 0.5 mins postinjection
Type: ADME, organism-based, Macaca fascicularis
Settings: in vivo

SMILES	Ratio
O=C(OCC[18F])C1C2CCC(CC1c1cccc(/C=C\Br)c1)N2 (centres undefined)	0.9

Test system: Putamen
Test: Drug uptake in anesthetized cynomolgus monkey brain putamen after 195 mins postinjection
Type: ADME, organism-based, Macaca fascicularis
Settings: in vivo, 3.25 h

SMILES	Drug uptake
O=C(OCC[18F])C1C2CCC(CC1c1cccc(/C=C\Br)c1)N2 (centres undefined)	3.53

Test system: not listed separately
Test: Ratio of drug uptake in caudate to cerebellum in anesthetized cynomolgus monkey after 55 mins postinjection
Type: ADME, organism-based, Macaca fascicularis
Settings: in vivo

SMILES	Ratio
O=C(OCC[18F])C1C2CCC(CC1c1cccc(/C=C\Br)c1)N2 (centres undefined)	1.1

Test system: Medulla
Test: Drug uptake in anesthetized cynomolgus monkey brain medulla after 2.5 mins postinjection
Type: ADME, organism-based, Macaca fascicularis
Settings: in vivo

SMILES	Drug uptake
O=C(OCC[18F])C1C2CCC(CC1c1cccc(/C=C\Br)c1)N2 (centres undefined)	0.61
